Results taken from patent US20070049564A1 (Wyeth, priority 2005, published 2007).
In brackets after ≈: the same amount, converted by molar mass. Read-outs that look alike come from different tables or passages of the source.

Tests used:
Staph. aureus Smith = experiment: In vitro activity (MIC) against Staph. aureus Smith; type: cell-based; conditions: Staphylococcus aureus
[1] = Pharmacokinetics in monkey, IV 2 mg/kg and oral 10 mg/kg; type: in vivo; conditions: Oral - MONKEY 10 mg/kg
Salmonella spp. GC 235 = experiment: MIC, broth microdilution; conditions: Salmonella, SPP.GC235, Salmonella spp. GC 235
Salmonella spp. GC 566 = experiment: MIC, broth microdilution; conditions: Salmonella, SPP.GC566, Salmonella spp. GC 566
S. cholerasius GC 1355 = experiment: MIC, broth microdilution; conditions: S. cholerasius GC 1355
E. coli #311 = experiment: In vivo activity (oral, iv; ED50) against E. coli in mice; conditions: Escherichia coli
From the text: . […] Smith and E. Coli #311 in mammals.
Results of the tests (MIC, oral and IV) are list in Table 7.

E. coli = experiment: In vitro activity (MIC) against E. coli (Table 7); type: cell-based; conditions: Escherichia coli
[2] = test system: E. coli, tet(A-D), efflux; experiment: In vitro activity (MIC), strain groups
Protocol: (§1) Antimicrobial susceptibility testing. The in vitro activities of the antibiotics are determined by the broth microdilution method as recommended by the National Committee for Clinical Laboratory Standards (NCCLS) (1). Mueller-Hinton II broth (MHBII)(BBL Cockeysville, Md.) is the medium employed in the testing procedures. Microtiter plates containing serial dilutions of each antimicrobial agent are inoculated with each organism to yield the appropriate density (10^5 CFU/ml) in a 100 μl final volume. The plates are incubated for 18-22 hours at 35° C. in ambient air.
Representative compounds were first incubated in mouse serum for an hour prior to the in vitro testing against a panel of selected gram-positive and gram-negative bacteria strains. All compounds were also pre-incubated in water for an hour prior to testing as control. Representative compounds of Formula I were incubated in human serum prior to MIC determination.

[3] = test system: E. coli, tet (M,S,O) Tet (M); experiment: In vitro activity (MIC), strain groups; conditions: Human Serum
Protocol: as §1
Presented in Tables I-XIII are representative compounds of Formula I which were evaluated against a panel of 40 selected gram-positive and gram-negative bacteria strains by pre-incubation in water, mouse serum or human serum. Representative compounds were first incubated in mouse serum for an hour prior to the in vitro testing against a panel of selected gram-positive and gram-negative bacteria strains. All compounds were also pre-incubated in water for an hour prior to testing as control. Representative compounds of Formula I were incubated in human serum prior to MIC determination.

Enterococcus spp. = experiment: In vitro activity (MIC), strain groups; design: MIC: unit not given beside the values
Streptococcus spp. = experiment: In vitro activity (MIC), strain groups; design: MIC: unit not given beside the values
[4] = single intravenous dose, mice, Table 7, read-out: ED50 SIV (E. coli)
[5] = single oral dose, mice, Table 7, read-out: ED50 SOD (E. coli)
[6] = single intravenous dose (SIV), read-out: ED50 E. coli #311 SIV
[7] = single oral dose (SOD), read-out: ED50 E. coli #311 SOD

SMILES	MIC (Staph. aureus Smith; Table 8) [µg/mL]	MIC (Salmonella spp. GC 235; Mouse Serum pre-incubation) [µg/mL]	MIC (Salmonella spp. GC 235; Water pre-incubation) [µg/mL]	MIC (Salmonella spp. GC 566; Mouse Serum pre-incubation) [µg/mL]	MIC (Salmonella spp. GC 566; Water pre-incubation) [µg/mL]	MIC (S. cholerasius GC 1355; Mouse Serum pre-incubation) [µg/mL]	MIC (S. cholerasius GC 1355; Water pre-incubation) [µg/mL]	ED50 (E. coli #311; [4]) [mg/kg]	ED50 (E. coli #311; [5]) [mg/kg]	MIC (E. coli) [µg/mL]	ED50 (E. coli #311; [6]) [mg/kg]	ED50 (E. coli #311; [7]) [mg/kg]	MIC (Staph. aureus Smith; Table 6) [µg/mL]	other results
CCCCN(CC(=O)Nc1cc(N(C)C)c2c(c1O)C(=O)C1=C(O)[C@]3(O)C(=O)C(C(N)=O)=C(O)[C@@H](N(C)C)C3CC1C2)C(=O)OCOC(=O)C(C)C (stereo partly drawn) [Example 1, ({[(2-{[(7S,10aS)-9-(aminocarbonyl)-4,7-bis(dimethylamino)-1,8,10a,11-tetrahydroxy-10,12-dioxo-5,5a,6,6a,7,10,10a,12-octahydrotetracen-2-yl]amino}-2-oxoethyl)(butyl)amino]carbonyl}oxy)methyl 2-methylpropanoate]	4 (≈ 5.48 µM)	1 (≈ 1.37 µM)	64 (≈ 87.7 µM)	2 (≈ 2.74 µM)	64 (≈ 87.7 µM)	8 (≈ 11 µM)	> 64	–	–	–	–	–	–	Cmax [1]: no levels detected
CCCN(CC(=O)Nc1cc(N(C)C)c2c(c1O)C(=O)C1=C(O)[C@]3(O)C(=O)C(C(N)=O)=C(O)[C@@H](N(C)C)[C@@H]3C[C@@H]1C2)C(=O)OCOC(=O)c1ccc(C)cc1 [Example 5, ({[(2-{[(5aR,6aS,7S,10aS)-9-(aminocarbonyl)-4,7-bis(dimethylamino)-1,8,10a,11-tetrahydroxy-10,12-dioxo-5,5a,6,6a,7,10,10a,12-octahydrotetracen-2-yl]amino}-2-oxoethyl)(propyl)amino]carbonyl}oxy)methyl 4-methylbenzoate]	1 (≈ 1.31 µM)	2 (≈ 2.62 µM)	32 (≈ 41.9 µM)	4 (≈ 5.24 µM)	64 (≈ 83.8 µM)	16 (≈ 20.9 µM)	> 64	3.17	> 64	> 64	–	–	–	–
CCCN(CC(=O)Nc1cc(N(C)C)c2c(c1O)C(=O)C1=C(O)[C@]3(O)C(=O)C(C(N)=O)=C(O)[C@@H](N(C)C)[C@@H]3C[C@@H]1C2)C(=O)OCOC(=O)c1ccsc1 [Example 27, ({[(2-{[(5aR,6aS,7S,10aS)-9-(aminocarbonyl)-4,7-bis(dimethylamino)-1,8,10a,11-tetrahydroxy-10,12-dioxo-5,5a,6,6a,7,10,10a,12-octahydrotetracen-2-yl]amino}-2-oxoethyl)(propyl)amino]carbonyl}oxy)methyl thiophene-3-carboxylate]	0.12 (≈ 0.159 µM)	–	–	–	–	–	–	–	–	–	> 2	> 32	–	MIC ([2]; Human Serum): 4-16; MIC ([2]; Mouse Serum): 0.5-1; MIC [3]: 4-8; MIC (Enterococcus spp.; Human Serum): 0.5-2; MIC (Enterococcus spp.; Mouse Serum): 0.12-1; MIC (Enterococcus spp.; water): 0.12-1; MIC (Streptococcus spp.; Human Serum): 0.12-2; MIC (Streptococcus spp.; Mouse Serum): <0.06-0.12; MIC (Streptococcus spp.; water): <0.06-0.12
CN(C)c1cc(NC(=O)CN(C(=O)OCOC(=O)c2ccc(F)cc2)C(C)(C)C)c(O)c2c1C[C@H]1C[C@H]3[C@H](N(C)C)C(O)=C(C(N)=O)C(=O)[C@@]3(O)C(O)=C1C2=O [Example 52, ({[(2-{[(5aR,6aS,7S,10aS)-9-(aminocarbonyl)-4,7-bis(dimethylamino)-1,8,10a,11-tetrahydroxy-10,12-dioxo-5,5a,6,6a,7,10,10a,12-octahydrotetracen-2-yl]amino}-2-oxoethyl)(tert-butyl)amino]carbonyl}oxy)methyl 4-fluorobenzoate]	–	–	–	–	–	–	–	3.78	43.7	8 (≈ 10.2 µM)	3.78	43.7	2 (≈ 2.56 µM)	–
CC(C)CC(=O)OCOC(=O)N(CC(=O)Nc1cc(N(C)C)c2c(c1O)C(=O)C1=C(O)[C@]3(O)C(=O)C(C(N)=O)=C(O)[C@@H](N(C)C)[C@@H]3C[C@@H]1C2)C(C)(C)C [Example 53, ({[(2-{[(5aR,6aS,7S,10aS)-9-(aminocarbonyl)-4,7-bis(dimethylamino)-1,8,10a,11-tetrahydroxy-10,12-dioxo-5,5a,6,6a,7,10,10a,12-octahydrotetracen-2-yl]amino}-2-oxoethyl)(tert-butyl)amino]carbonyl}oxy)methyl 3-methylbutanoate]	–	–	–	–	–	–	–	2.25	46.9	32 (≈ 43 µM)	2.25	46.9	1 (≈ 1.34 µM)	–
